Read-outs that look alike come from different tables or passages of the source.

One series is described as follows: Vapor pressure at 20° C. The format is physicochemical. How it is done:
(§1) The alcohol used as the poorly water-soluble solvent has a vapor pressure at 20° C. of 0.5 mmHg or less and a surface tension of 30.0 mN/m or more as described above. When a poorly water-soluble alcohol having a vapor pressure at 20° C. of more than 0.5 mmHg forms a film on an ejection opening of a recording head, the film evaporates unfortunately, and the effect of suppressing water evaporation is reduced. In consideration of this point, the poorly water-soluble alcohol preferably has a vapor pressure at 20° C. of 0.2 mmHg or less and more preferably 0.1 mmHg or less. Meanwhile, a poorly water-soluble alcohol having a surface tension of less than 30.0 mN/m has a weak intermolecular force, and thus the poorly water-soluble alcohol cannot form a film even when separated from an ink. In consideration of this point, the poorly water-soluble alcohol preferably has a surface tension of 36.0 mN/m or more. The poorly water-soluble alcohol preferably has a surface tension of 50 mN/m or less.

Series [1] is described as follows: Partition coefficient (n-octanol / water), common logarithm. The conditions noted are these: for LogPA: poorly water-soluble alcohol (solvent A); for LogPB: highly water-soluble solvent (solvent B); for Log partition coefficient: solvents used in Comparative Examples.
Series [2] in a line: Solubility in water at 20° C. (saturated solubility). It is filed as physicochemical. The procedure: As the poorly water-soluble solvent, at least an alcohol having a vapor pressure at 20° C. of 0.5 mmHg or less and a surface tension of 30.0 mN/m or more (hereinafter also called “poorly water-soluble alcohol”) is used.
The nature of another series: Surface tension. It is filed as physicochemical. How it is done: The present invention will now be more specifically described with reference to preferred embodiments, but the invention is not intended to be limited to the following embodiments. In the present specification, an aqueous ink for ink jet may be simply called “ink”. Physical property values are values determined at normal temperature (25° C.) unless otherwise noted.
as §1

Setting [3] is: solvents used in Comparative Examples.

For the molecule `CC(O)COc1ccccc1` (centres unmarked) [1-Phenoxy-2-propanol], the Vapor pressure in the series “Vapor pressure at 20° C.” came to 0.0 mmHg. This molecule also came in with a LogPA in series [1] of 1.51. The molecule further registered a Solubility in series [2] of 1.10 g/100 g-H2O. The Surface tension in “Surface tension” was 37.7 mN/m.

For the molecule `CC(O)Cc1ccccc1` (centres unmarked) [1-Phenyl-2-propanol], the Vapor pressure in the series “Vapor pressure at 20° C.” was determined as 0.1 mmHg. This molecule also displayed a LogPA in series [1] of 1.71. The molecule also showed a Solubility in series [2] of 0.58 g/100 g-H2O. Besides, in “Surface tension”, the Surface tension was found to be 37.3 mN/m.

`OCCOc1ccccc1` [2-Phenoxyethanol] displayed a Vapor pressure in the series “Vapor pressure at 20° C.” of 0.0 mmHg. For the same molecule, in series [1], the LogPA is recorded as 1.16. In addition, the Solubility in series [2] stood at 2.67 g/100 g-H2O. Further, in the series “Surface tension”, the Surface tension stood at 40.0 mN/m.

Consider `O=C1CCCN1` [2-Pyrrolidone], for which the LogPB in series [1] is recorded as −1.01.

Molecule `OCCCc1ccccc1` [3-Phenyl-1-propanol] registered a Vapor pressure in “Vapor pressure at 20° C.” of 0.0 mmHg. The same molecule displayed a LogPA in series [1] of 1.88. For the same molecule, the Solubility in series [2] is 0.57 g/100 g-H2O. Also, in the series “Surface tension”, the Surface tension came to 38.9 mN/m.

`OCCCCc1ccccc1` [4-Phenyl-1-butanol] showed a Vapor pressure in “Vapor pressure at 20° C.” of 0.0 mmHg. The molecule further had a LogPA in series [1] of 2.40. Moreover, the Solubility in series [2] is given as 0.10 g/100 g-H2O. The molecule further yielded a Surface tension in “Surface tension” of 38.3 mN/m.

On to `CC(=O)OCc1ccccc1` [Benzyl acetate], for which the Vapor pressure in “Vapor pressure at 20° C.” (setting [3]) is reported as 0.2 mmHg. The Log partition coefficient in series [1] is 1.84. This molecule came in with a Solubility in series [2] (setting [3]) of 0.30 g/100 g-H2O. Besides, the Surface tension in the series “Surface tension” (setting [3]) is on record as 35.9 mN/m.

Turning to `OCc1ccccc1` [Benzyl alcohol], the Vapor pressure in the series “Vapor pressure at 20° C.” is listed as 0.1 mmHg. The LogPA in series [1] came out at 1.03. This molecule came in with a Solubility in series [2] of 4.29 g/100 g-H2O. The molecule also showed a Surface tension in “Surface tension” of 39.0 mN/m.

Regarding `OCCO` [Ethylene glycol], the LogPB in series [1] is listed as −1.69.

For `CCCCCO` [Example 1-Pentanol, 1-Pentanol], the Vapor pressure in the series “Vapor pressure at 20° C.” (setting [3]) is listed as 1.5 mmHg. This molecule also yielded a Log partition coefficient in series [1] of 1.41. Besides, the Solubility in series [2] (setting [3]) was 2.20 g/100 g-H2O. This molecule also showed a Surface tension in “Surface tension” (setting [3]) of 25.5 mN/m.

For `OCC(O)CO` [Glycerol], the LogPB in series [1] was −2.32.

Molecule `C=CC(C)(O)CCC=C(C)C` (centres unmarked) [Linalool] registered a Vapor pressure in the series “Vapor pressure at 20° C.” (setting [3]) of 0.2 mmHg. The molecule further displayed a Solubility in series [2] (setting [3]) of 1.50 g/100 g-H2O. In the series “Surface tension” (setting [3]), this molecule returned a Surface tension of 26.6 mN/m.

`COCCOCCO` [Methyl carbitol]: the LogPB in series [1] is given as −1.16.

In turn, `OCCc1ccccc1` [Phenethyl alcohol] registered a Vapor pressure in “Vapor pressure at 20° C.” of 0.1 mmHg. In addition, the Solubility in series [2] came out at 2.20 g/100 g-H2O. In “Surface tension”, this molecule returned a Surface tension of 39.7 mN/m.

The molecule `O=CCc1ccccc1` [Phenylacetaldehyde] returned a Vapor pressure in “Vapor pressure at 20° C.” (setting [3]) of 0.4 mmHg. This molecule yielded a Surface tension in the series “Surface tension” (setting [3]) of 35.9 mN/m.

As to `CC(O)CO` (centres unmarked) [Propylene glycol], in series [1], the LogPB is −1.34.

`OCCOCCOCCO` [Triethylene glycol]: the LogPB in series [1] is listed as −1.87. Besides, the Solubility in series [2] is listed as ≥ 20 g/100 g-H2O.

As to `COc1ccc(C=O)cc1` [p-Anisaldehyde], in the series “Vapor pressure at 20° C.” (setting [3]), the Vapor pressure is on record as 0.0 mmHg. Moreover, the Solubility in series [2] (setting [3]) was found to be 0.40 g/100 g-H2O. In addition, the Surface tension in “Surface tension” (setting [3]) turned out to be 37.2 mN/m.

For the origin of these results see patent US10836921B2, “Ink, ink cartridge, and ink jet recording method” (CANON KABUSHIKI KAISHA, priority 2016, dated 2020).
